The values below come from patent US20060142393A1, “Bis(thio-hydrazide amides) for treatment of hyperplasia” (priority 2004, published 2006).

Where two headings read alike, the source gives them in different places.

The subject of series [1] is MES-SA. Kind of series: MTS growth inhibition, MES-SA cells. Type of series: cell-based. To be noted: Homo sapiens, 72 h, MTS assay. The method, then: (§1) The in vitro activity of the compounds was assessed in a selected set of human cancer cell lines.
(§2) MES—SA, a model of uterine sarcoma, is sensitive to a number of chemotherapeutic agents, including Doxorubicin, Dactinomycin, Mitomycin C, Taxol™ and Bleomycin, but resistant to Vinblastine and Cisplatin. MES—SA/DX5 was established in the presence of increasing concentrations of Doxorubicin. […] Both MES—SA and MES—SA/Dx5 were purchased from ATCC (ATCC CRL-1976 and ATCC CRL-1977, respectively).
(§3) All experiments were performed on exponentially growing cell culture. Cell densities were 2.5×10^4 cells/ml in all experiment except special.

The test system of series [2] is MES-SA/DX5. Nature of the series: MTS growth inhibition, multi-drug resistant MES-SA/DX5 cells. The class given is cell-based, human. Particulars: for IC50: Homo sapiens. On the procedure:
as §1, §2, §3

Series [3] has as its system HL-60. Nature of the series: MTS growth inhibition, HL-60 cells. Type of series: cell-based. Particulars: Homo sapiens, HL-60, 72 h, MTS assay. The method, then: (§4) The in vitro activity of the compounds was assessed in a selected set of human cancer cell lines. Three pairs of tumor cell lines (non-resistant/resistant) were used to identify novel potent antitumor compounds which are capable of overcoming multi-drug resistance.
(§5) HL-60, a model of myeloid leukemia, was obtained from ATCC (ATCC CCL-240); and HL60/TX1000 was isolated in vitro by subculturing HL-60 in progressively higher concentration of Taxol™. HL-60/TX1000 cells over-express mdr-1 mRNA and p-glycoprotein (PCP), as determined by western blot and immunofluorescence labeling with antiPGP antibodies. The cells are cross-resistant to Taxol™, Vincristine, Adriamycin, Etoposide and Doxorubicin.
as §3

The test system of series [4] is HL-60/TX1000. Kind of series: MTS growth inhibition, multi-drug resistant HL-60/TX1000 cells. The class given is cell-based, human. To be noted: for IC50: Homo sapiens, HL60/TX1000, 72 hours, MTS assay, MDR cell line. On the procedure:
as §4, §5, §3

For series [5], the system named is Bowes. Nature of the series: MTS growth inhibition, Bowes melanoma cells. Type of series: cell-based. To be noted: Homo sapiens, 72 h, MTS assay. The method, then: as §4
(§6) Bowes is a melanoma cell line; and Bowes/OV2 is a Vincristine resistant Bowes melanoma cell line.
as §3
A general note: Tetrazolium assays rely on reduction of a dye to a coloured formazan, in cell work by metabolically active cells.

The test system of series [6] is Bowes/OV2. Kind of series: MTS growth inhibition, Vincristine resistant Bowes/OV2 cells. The class given is cell-based, human. To be noted: for IC50: Homo sapiens, 72 hours, MTS assay, MDR cell line. On the procedure:
as §4, §6, §3

Series [7] in a line: MTS cytotoxicity, 39SK normal fibroblast. Type of series: cell-based. To be noted: human, 39SK cells (normal fibroblast), MTS assay, read-out: In vitro Cytotoxicity IC50, 39SK.
Series [8] has as its system Jurkat. Nature of the series: MTS cytotoxicity, Jurkat T cell leukemia. To be noted: Homo sapiens, 72 h, read-out: In vitro Cytotoxicity IC50, Jurkat. On the procedure: (§7) The in vitro activity of the compounds was determined in a selected set of human leukemia cell lines. CEM (T-cell leukemia), Jurkat (T-cell leukemia), K562 (chronic myelocyte), THP-1 (monocyte), SB (B-cell leukemia), U937 (lymphoma) were purchased from ATCC. H2 leukemia cell line was a gift from Harvard Medical School. The cell lines were maintained in RPMI1640(GIBCO) supplemented with 10% FCS, 100 units/ml penicillin, 100 ug/ml streptomycin, and 2 mM L-glutamine. […] All experiments were performed on exponentially growing cell culture. Cell densities were 2.5×10^4 cells/mL in all experiments.
(§8) Final concentrations […] were obtained by diluting the stock solution directly into the tissue culture medium. Cells were incubated with varying concentrations of compounds for 72 hours and the IC50 was determined by MTS (i.e. […]) assay.

Series [9] relates to CEM. Kind of series: MTS cytotoxicity, CEM T cell leukemia. To be noted: Homo sapiens, CCRF-CEM, 72 h, read-out: In vitro Cytotoxicity IC50, CEM. The method, then:
as §7, §8

Series [10] relates to K-562. Kind of series: MTS cytotoxicity, K-562 chronic myelocyte. The class given is cell-based. Particulars: Homo sapiens, K562, 72 hours, MTS assay, read-out: In vitro Cytotoxicity IC50, K-562. On the procedure:
as §7, §8

Series [11] relates to THP-1. Kind of series: MTS cytotoxicity, THP-1 monocyte. To be noted: Homo sapiens, THP-1, 72 h, read-out: In vitro Cytotoxicity IC50, THP-1. The method, then: as §7, §8
Series [12] has as its system U937. Nature of the series: MTS cytotoxicity, U937 lymphoma. The class given is cell-based. Particulars: Homo sapiens, U-937, 72 hours, MTS assay, read-out: In vitro Cytotoxicity IC50, U937. The method, then:
as §7, §8

Series [13] concerns SB. Nature of the series: MTS cytotoxicity, SB B cell leukemia. Particulars: Homo sapiens, 72 h, read-out: In vitro Cytotoxicity IC50, SB. On the procedure:
as §7, §8

For series [14], the system named is H2. Nature of the series: MTS cytotoxicity, H2 leukemia. Particulars: Homo sapiens, 72 hours, MTS assay, read-out: In vitro Cytotoxicity IC50, H2. The class given is cell-based. The method, then:
as §7, §8

The subject of series [15] is MDA-435 human breast tumor. Kind of series: MDA-435 human breast carcinoma tumors in nude mice, combination with Epothilone D. The class given is in vivo. Particulars: Compound (1) 50 mg/kg + Epothilone D 5 mg/kg intravenously, 3 times a week for 3 weeks.
Procedure: A supplemented media was prepared from 50% DMEM/Dulbecco Modified Eagle Medium (High Glucose), 50% RPMI 1640, 10% FBS/Fetal Bovine Serum (Hybridoma Tested; Sterile Filtered), 1% L-Glutamine, 1% Penicillin-Streptomycin, 1% MEM Sodium Pyruvate and 1% MEM Non-Essential Amino Acids. FBS was obtained from Sigma Chemical Co. and other ingredients were obtained from Invitrogen Life Technologies, USA). The supplemental media was warmed to 37° C and 50 ml of media was added to a 175 cm^2 tissue culture flask.
The cells used in the assay were MDA-435 Human Breast Carcinoma from the American Type Culture Collection. 1 vial of MDA-435 cells from the liquid nitrogen frozen cell stock was removed. The frozen vial of cells was immediately placed into a 37° C. water bath and gently swirled until thawed. The freeze-vial was wiped with 70% ethanol and cells were immediately pipetted into the 175 cm^2 tissue culture flask containing supplemented media. […]
Series [16] deals with CEM cells. Nature of the series: Human T-cell leukemia (CEM) growth in SCID mice, FACS quantitation of CEM cells in blood. The class given is in vivo. To be noted: 25 mg/kg intraperitoneally twice a day for 3 weeks; blood at day 33; CEM cells in white blood cells by FACS. The source says: Human T-cell leukemia cell line, CEM, was obtained from American Type Culture Collection. Eight-week old female SCID mice were purchased from Charles Rive Laboratories (Wilmington, Mass.). FITC conjugated anti-human […] was obtained from BD […]). ACK lysing buffer was obtained from BioWhittaker. […] After three weeks treatment, blood was taken from mouse retro-orbital sinus at day 33. Red blood cells were partially lyzed with ACK lysing buffer. The cells were stained with FITC conjugated anti-human […] antibody for one hour at 4° C. FACS analysis was performed to quantitate the amount of CEM cells in the blood. White blood cells were gated for FACS analysis.
In general terms: A flow cytometer gives signals particle by particle.

Series [17] concerns MES-SA/DX5 human sarcoma tumor. Nature of the series: MES-SA/DX5 human uterine sarcoma tumors in nude mice. Type of series: in vivo. Particulars: 15 mg/kg intravenously, 3 times a week for 3 weeks. The method, then: A supplemented media was prepared from 50% DMEM/Dulbecco Modified Eagle Medium (High Glucose), 50% RPMI 1640, 10% FBS/Fetal Bovine Serum (Hybridoma Tested; Sterile Filtered), 1% L-Glutamine, 1% Penicillin-Streptomycin, 1% MEM Sodium Pyruvate and 1% MEM Non-Essential Amino Acids. FBS was obtained from Sigmna Chemical Co. and other ingredients were obtained from Invitrogen Life Technologies, USA). The supplemental media was warmed to 37° C. and 50 ml of media was added to a 175 cm^2 tissue culture flask.
The cells used in the assay were multi-drug resistant MES—SA/DX-5 Human Uterine Sarcoma cells from the American Type Culture Collection. 1 vial of MES—SA/DX-5 cells from the liquid nitrogen frozen cell stock was removed. The frozen vial of cells was immediately placed into a 37° C. water bath and gently swirled until thawed. The freeze-vial was wiped with 70% ethanol and cells were immediately pipetted into the 175 cm^2 tissue culture flask containing supplemented media. […]
The flask was washed with 10 ml of sterile room temperature phosphate buffered saline (PBS). […] The supernatant was aspirated and the cell pellet was resuspended in 10 ml of supplemented media and the cells were counted. […]
The above procedure for trypsinizing and centrifuging the cells were followed. The supernatant was aspirated and the cell pellet was resuspended in 10 ml of sterile PBS and the cells were counted. […]

[18] abbreviates: MES-SA/Dx5, 72 hours, MTS assay, MDR cell line, read-out: IC50 MES-SA/DX5.
The mark [19] stands for this setting: MES-SA/Dx5, Example 2, protocol of Example 1, MDR uterine sarcoma cell line, read-out: IC50 MES/DX5.
[20] abbreviates: MES-SA/Dx5, read-out: IC50 MES/DX5.

For `CC[C@]1(O)C[C@H]2CN(CCc3c([nH]c4ccccc34)[C@@](C(=O)OC)(c3cc4c(cc3OC)N(C=O)[C@H]3[C@@](O)(C(=O)OC)[C@H](OC(C)=O)[C@]5(CC)C=CCN6CC[C@]43[C@@H]65)C2)C1` [Vincristine], the IC50 was 2 to 5 nM in series [1]; 5000 nM in [2] (setting [18]); 2 to 5 nM in [3]; 5000 nM in series [4]; 2 to 5 nM in series [5]; 5000 nM in [6]. Further, the IC50 in series [8] was found to be 1 nM; in series [9], 5 nM; in series [10], 5 nM; in series [11] it was 5 nM; in series [12], 5 nM; in [13], 1 nM. Also, in series [14], the IC50 is 5 nM. Besides, the IC50 at 72 h in series [7] was found to be 1000 nM.

`CC(=O)O[C@H]1C(=O)[C@@]2(C)[C@H]([C@H](OC(=O)c3ccccc3)[C@]3(O)C[C@H](OC(=O)[C@H](O)[C@@H](NC(=O)c4ccccc4)c4ccccc4)C(C)=C1C3(C)C)[C@]1(OC(C)=O)CO[C@@H]1C[C@@H]2O` [Taxol ™, paclitaxel]: the IC50 in series [2] (setting [18]) is 5000 nM; in series [2] (setting [19]), 5000 nM; in series [3], 2 to 5 nM; in series [4], 5000 nM; in series [6], 5000 nM; in series [8] it was 1 nM. The IC50 in [9] was found to be 10 nM; in series [10], 5 nM; in [11] it was 5 nM; in series [12], 5 nM; in series [13], 1 nM; in series [14], 5 nM. The IC50 at 72 h in [7] stood at 1000 nM.

As to `COc1cccc(C(=S)N(C)NC(=O)C(C)C(=O)NN(C)C(=S)c2cccc(OC)c2OC)c1OC` [Compound (12)], the IC50 in [2] (setting [20]) turned out to be 5 nM.

With `CN(NC(=O)CC(=O)NN(C)C(=S)c1ccccc1)C(=S)c1ccccc1` [Compound (1)], the IC50 in series [2] (MES-SA/Dx5, 72 h, read-out: IC50 MES-SA/DX5) is 5 nM; in series [3] it was 400 nM; in [4] it was 50 nM; in series [5] it was 200 nM; in series [6], 10 nM; in [9], 10 nM. Further, the IC50 in [13] came to 5 nM. In addition, the “specificity against MES-SA/DX5” value in series [2] (IC50 MES-SA / IC50 MES-SA/DX5 (=0.05/0.005)) was determined as 10. Besides, in series [4] (IC50 HL-60 / IC50 HL-60/TX1000 (=0.4/0.05)), the “specificity against HL60/TX1000” value amounted to 8. Moreover, in series [6] (IC50 Bowes / IC50 Bowes/OV2 (=0.2/0.01)), the “specificity against Bowes/OV2” value came to 20. Besides, the “effect on anti-tumor activity of Epothilone D” value in [15] (FIG. 2) is “significantly enhanced anti-tumor activity of Epothilone D”. The “toxicity of combination with Epothilone D (body weight)” value in series [15] (FIG. 3) is given as “without increasing toxicity”. The “% circulating leukemia cells” value in series [16] is on record as about 4.6%.

In the case of `CCN(NC(=O)C(C)C(=O)NN(CC)C(=S)c1ccccc1)C(=S)c1ccccc1` [Compound (16)], the IC50 in series [2] (setting [20]) turned out to be 50 nM. Besides, the “toxicity (body weight suppression, behavior changes)” value in [17] is given as “no obvious toxicity”. For the same compound, the “tumor growth of MES/SA-DX5 compared to vehicle treated mice” value in series [17] (FIG. 1) is listed as “significantly inhibits the tumor growth”.

As for `COc1ccc(C)c(C(=S)N(C)NC(=O)CC(=O)NN(C)C(=S)c2cc(OC)ccc2C)c1` [Compound (13)], the IC50 in [2] (setting [20]) worked out at 50 nM.

As to `CN(NC(=O)CC(=O)NN(C)C(=S)c1cc(Cl)ccc1Cl)C(=S)c1cc(Cl)ccc1Cl` [Compound (14)], the IC50 in series [2] (setting [20]) came to 10 nM.

As for `CN(NC(=O)CC(=O)NN(C)C(=S)C1CC1)C(=S)C1CC1` [(18)], the IC50 in series [2] (setting [19]) is 10 nM.
